{"source": "paper PMC9227250", "about": "“Design, Synthesis and Cytotoxic Activity Evaluation of Newly Synthesized Amides-Based TMP Moiety as Potential Anticancer Agents over HepG2 Cells” (Molecules, 2022)", "key": {"HepG2 cells [1]": {"tested_on": "HepG2 cells", "experiment": "MTT cytotoxicity assay against HepG2 cell line", "format": "cell-based", "settings": "Homo sapiens, mean of three independent replicates ± SE", "procedure": "(§1) Cytotoxic activity was carried out using MTT colorimetric antiproliferative assay to investigate the effect of the prepared molecules on HepG2 as well as HL-7702 cell lines. See Section 4.3.1 in Supplementary Data.\n(§2) 4.3.1. Cytotoxic activity evaluation\n(§3) To measure the cytotoxic actvity of the amide derivatives 2-6e in hepatocellular carcinoma (HepG2) cell line (ATCC Cat No. HB-8065) as well as normal human liver cell line HL-7702 (ATCC Cat. No. 77402), cell viability assay was assessed using MTT assay method. Cells at density of 1 x 104 were seeded in a 96-well plate at 37 °C for 24 h under 5% CO2. After incubation, the cells were treated with different concentrations of the test schiff bases 2-6e and incubated for 24 h, then 20 µl of MTT solution at 5 mg/mL was applied and incubated for 4 h at 37 °C . Dimethyl sulphoxide (DMSO) in volume of 100 µl was added to each well to dissolve the purple formazan that had formed. The color intensity of the formazan product, which represents the growth condition of the cells, is quantified by using an ELISA plate reader (EXL 800, USA) at 450 nm absorbance. The experimental conditions were carried out with at least three replicates, and the experiments were repeated at least three times. […]"}, "HL-7702 cells": {"tested_on": "HL-7702 cells", "experiment": "MTT cytotoxicity assay against normal liver cell line HL-7702", "format": "cell-based, human", "procedure": "as §1, §2, §3"}, "HDAC1": {"target": "T1, HDAC1 (Homo sapiens, UniProt Q13547)", "T1 construct": "Briefly, HepG2 cells were trypsinized, counted and seeded; host or cells: HepG2", "T1 sequence (Q13547 whole entry)": "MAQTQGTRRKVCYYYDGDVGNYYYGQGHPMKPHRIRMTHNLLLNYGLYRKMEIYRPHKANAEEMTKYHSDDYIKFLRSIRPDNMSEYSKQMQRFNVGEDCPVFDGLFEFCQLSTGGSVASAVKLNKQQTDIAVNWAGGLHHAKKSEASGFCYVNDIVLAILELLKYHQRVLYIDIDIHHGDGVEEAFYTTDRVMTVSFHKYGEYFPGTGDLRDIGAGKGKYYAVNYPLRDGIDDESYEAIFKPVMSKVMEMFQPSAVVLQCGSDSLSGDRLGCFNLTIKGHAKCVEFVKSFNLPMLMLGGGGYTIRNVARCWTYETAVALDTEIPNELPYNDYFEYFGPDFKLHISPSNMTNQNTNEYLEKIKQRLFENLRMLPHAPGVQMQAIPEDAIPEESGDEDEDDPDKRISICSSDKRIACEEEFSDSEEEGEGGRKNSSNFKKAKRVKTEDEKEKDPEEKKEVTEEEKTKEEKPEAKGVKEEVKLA", "experiment": "In vitro HDAC1 inhibition assay (ELISA kit)", "format": "biochemical", "settings": "HepG2 cells exposed 72 h", "procedure": "(§4) See Section 4.3.2 in Supplementary Data.\n(§5) 4.3.1. Cytotoxic activity evaluation […]\n(§6) for 24 h under 5% CO2. After incubation, the cells were treated with different concentrations of the test schiff bases 2-6e and incubated for 24 h, then 20 µl of MTT […]\n(§7) (DMSO) in volume of 100 µl was added to each well to dissolve the purple formazan that had formed. The color intensity of the formazan product, which represents the […]\n(§8) USA) at 450 nm absorbance. The experimental conditions were carried out with at least three replicates, and the experiments were repeated at least three times.\n(§9) 4.3.2. In vitro HDAC inhibition assay\n(§10) HDAC isoforms (HDAC1, 2) were measured using ELISA assay kits {Mybiosource, Inc. [#MBS2020012 and #MBS2510971]} according to manufacturer's directions.\n(§11) 96-well micro titer plates. Cells then were incubated in a humidified atmosphere at 37 °C for 24 h. The standards, the tested compounds, and the positive reference SAHA were diluted to designated concentrations. On the 96-well micro titer plates standard or sample was added to each well in 100 µL, and incubated at 37 °C for 2 h. The solution was aspirated and 100 µL of prepared. Detection Reagent A was added to […]\n4.3.3. […]\n(§12) The samples were immediately analyzed using Facs Calibur flow cytometer (Becton and Dickinson, Heidelberg, Germany). […]\n(§13) immediately analyzed using FACS Calibur flow cytometer (Becton and Dickinson, […]"}, "HDAC2": {"target": "T2, HDAC2 (Homo sapiens, UniProt Q92769)", "T2 construct": "Briefly, HepG2 cells were trypsinized, counted and seeded; host or cells: HepG2", "T2 sequence (Q92769 whole entry)": "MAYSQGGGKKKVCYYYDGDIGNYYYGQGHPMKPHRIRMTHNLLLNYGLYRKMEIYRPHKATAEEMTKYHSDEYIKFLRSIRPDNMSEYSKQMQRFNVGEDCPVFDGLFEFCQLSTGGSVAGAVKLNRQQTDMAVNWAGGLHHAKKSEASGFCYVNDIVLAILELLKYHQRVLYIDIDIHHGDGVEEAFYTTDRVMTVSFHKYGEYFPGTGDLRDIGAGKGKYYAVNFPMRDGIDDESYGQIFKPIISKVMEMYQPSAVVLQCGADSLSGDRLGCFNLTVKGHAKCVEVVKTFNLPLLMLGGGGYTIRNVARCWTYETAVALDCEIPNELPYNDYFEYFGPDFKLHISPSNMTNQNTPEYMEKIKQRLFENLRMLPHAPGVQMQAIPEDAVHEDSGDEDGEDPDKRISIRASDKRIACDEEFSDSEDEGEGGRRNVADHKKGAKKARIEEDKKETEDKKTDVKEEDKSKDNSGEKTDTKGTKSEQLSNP", "experiment": "In vitro HDAC2 inhibition assay (ELISA kit)", "format": "biochemical", "settings": "HepG2 cells exposed 72 h", "procedure": "as §4, §5, §6, §7, §8, §9, §10, §11\n4.3.3. […]\nas §12, §13"}, "β-tubulin": {"target": "T3, β-tubulin (Homo sapiens, UniProt P07437+P68363)", "T3 construct": "[…]", "T3 sequence (P07437 whole entry)": "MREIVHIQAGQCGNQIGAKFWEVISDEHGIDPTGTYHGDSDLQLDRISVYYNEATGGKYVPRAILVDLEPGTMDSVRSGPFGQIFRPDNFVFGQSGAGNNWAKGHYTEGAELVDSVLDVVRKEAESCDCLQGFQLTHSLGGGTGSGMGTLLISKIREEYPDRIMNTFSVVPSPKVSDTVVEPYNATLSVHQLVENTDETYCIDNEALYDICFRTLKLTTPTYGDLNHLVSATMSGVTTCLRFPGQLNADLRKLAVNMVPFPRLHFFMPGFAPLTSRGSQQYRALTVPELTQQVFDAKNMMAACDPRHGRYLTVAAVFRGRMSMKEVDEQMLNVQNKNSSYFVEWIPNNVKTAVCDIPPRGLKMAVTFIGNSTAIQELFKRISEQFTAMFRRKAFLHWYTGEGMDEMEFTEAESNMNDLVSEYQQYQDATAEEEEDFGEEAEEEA", "T3 sequence (P68363 whole entry)": "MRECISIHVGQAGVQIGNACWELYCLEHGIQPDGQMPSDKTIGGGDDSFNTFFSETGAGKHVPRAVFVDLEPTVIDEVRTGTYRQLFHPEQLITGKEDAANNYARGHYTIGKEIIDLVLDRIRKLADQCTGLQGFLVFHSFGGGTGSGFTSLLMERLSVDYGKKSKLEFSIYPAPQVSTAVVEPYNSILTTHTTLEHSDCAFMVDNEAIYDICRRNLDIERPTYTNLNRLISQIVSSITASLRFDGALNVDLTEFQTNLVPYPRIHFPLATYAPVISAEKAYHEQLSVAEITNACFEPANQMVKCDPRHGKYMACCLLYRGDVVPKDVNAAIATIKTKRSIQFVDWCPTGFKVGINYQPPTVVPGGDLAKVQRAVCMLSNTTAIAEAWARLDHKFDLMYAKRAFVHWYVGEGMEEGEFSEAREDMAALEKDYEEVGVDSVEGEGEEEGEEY", "experiment": "Tubulin polymerization inhibition assay (Human Beta-tubulin ELISA kit)", "format": "biochemical", "procedure": "See Section 4.3.3 in Supplementary Data.\n4.3.3. Tubulin inhibitions Assay […]\nmanufacturer’s instructions using # abcam Human Beta-tubulin simplestep ELISA Kit […]\nCell cycle analysis in HepG2 cells was investigated using fluorescent Annexin V - FITC/ PI detection kit (BioVision EZCellTM Cell Cycle Analysis Kit Catalog #K920) […]\nAfter treatment, cells were washed twice in PBS, fixed in 70% ethanol, rinsed again with PBS. Cells were collected by centrifugation at 2000 rpm for 5 min and stained with DNA […]\nThe samples were immediately analyzed using Facs Calibur flow cytometer (Becton and Dickinson, Heidelberg, Germany).\nApoptosis in HepG2 cells was investigated using fluorescent Annexin V-FITC/ PI detection kit (BioVision Annexin V-FITC Apoptosis Detection Kit, Catalog #: K101) […]\nas §13\nCaspase 3/7 in HepG2 cells was investigated using CellEvent® Caspase 3/7 Green Detection Flow Cytometry Assay Kit. Caspase 3/7 activity in HepG2 cell line was […]\nCellEvent® caspase 3/7 green detection flow cytometry assay kit according to manufacturer’s directions. […]\nharvested and washed with ice cold PBS, and cell lysates were prepared and […]"}, "HepG2 cells [2]": {"tested_on": "HepG2 cells", "experiment": "Cell cycle analysis by flow cytometry (PI)", "format": "cell-based, human", "settings": "HepG2, IC50 dose, 48 h; untreated control 7.28%", "text": "Inhibition of tubulin assembly into microtubule and the antiproliferative effects are characterized by cell cycle arrest in the G2/M phase. […] The results in this study indicate that the newly prepared tetraamide derivative 6a cause cell cycle perturbation in the G2/M phase which is the main gauge of HDAC and tubulin inhibitors confirming the mode of action under study.\nCell cycle analysis in HepG2 cells was investigated using fluorescent Annexin V-FITC/ PI detection kit (BioVision EZCell^TM Cell Cycle Analysis Kit Catalog #K920) by flow cytometry assay. See Section 4.3.4 in Supplementary Data. […]\n(§14) concentration that induces 50% of maximum inhibition of HDAC isoforms (IC50) […]\n(§15) 4.3.3. Tubulin inhibitions Assay\n(§16) Compound 6a was evaluated for its tubulin inhibitory activity according to manufacturer’s instructions using # abcam Human Beta-tubulin simplestep ELISA Kit […]\n(§17) 4.3.4. Cell cycle analysis of compound 6a\nCell cycle analysis in HepG2 cells was investigated using fluorescent Annexin V - FITC/ PI detection kit (BioVision EZCellTM Cell Cycle Analysis Kit Catalog #K920) by flow cytometry assay. HepG2 cells at a density of 2 × 10^5 per well were treated with compound 6a at its IC50 concentration for 48 h. […] The samples were immediately analyzed using Facs Calibur flow cytometer (Becton and Dickinson, Heidelberg, Germany). […]"}, "HepG2 cells [3]": {"tested_on": "HepG2 cells", "experiment": "Annexin V-FITC/PI apoptosis assay", "format": "cell-based, human", "settings": "HepG2, IC50 concentration, 48 h", "procedure": "G2/M blockade is often followed by cellular apoptosis. To quantify the percentage of cellular apoptosis induced by compound 6a in HepG2 cells, Annexin V fluorescein isothiocyanate versus propidium iodide (PI) dual staining analysis was performed after treatment with compound 6a at its IC50 concentration for 48 h. The results were presented graphically in Figure 5. […] Therefore, it can be concluded that compound 6a can be considered as apoptotic inducer.\nApoptosis in HepG2 cells was investigated using fluorescent Annexin V-FITC/ PI detection kit (BioVision Annexin V-FITC Apoptosis Detection Kit, Catalog #: K101) by flow cytometry assay. See Section 4.3.5 in Supplementary Data. […]\nas §14, §15, §16, §17\nCell cycle analysis in HepG2 cells was investigated using fluorescent Annexin V - FITC/ PI detection kit (BioVision EZCellTM Cell Cycle Analysis Kit Catalog #K920) by flow cytometry assay. HepG2 cells at a density of 2 × 10^5 per well were treated with compound 6a at its IC50 concentration for 48 h. After treatment, cells were washed twice in PBS, fixed in 70% ethanol, rinsed again with PBS. Cells were collected by centrifugation at 2000 rpm for 5 min and stained with DNA fluorochrome PI for 15 min at 37 °C in dark. The samples were immediately analyzed using Facs Calibur flow cytometer (Becton and Dickinson, Heidelberg, Germany).\n4.3.5. Apoptosis assay for compound 6a […]\nCaspase 3/7 in HepG2 cells was investigated using CellEvent® Caspase 3/7 Green Detection Flow Cytometry Assay Kit. Caspase 3/7 activity in HepG2 cell line was detected in the presence of compounds 6a at its IC50 concentration (µM) using CellEvent® caspase 3/7 green detection flow cytometry assay kit according to manufacturer’s directions. […]"}}, "data": [{"smiles": "COc1cc(C(=O)NC(=Cc2ccc(Cl)cc2)C(=O)NNC(=O)/C(=C/c2ccco2)NC(=O)c2cc(OC)c(OC)c(OC)c2)cc(OC)c1OC", "note": "[Compound 6a, N-((1Z)-3-(2-(3-(4-chlorophenyl)-2-(3,4,5-trimethoxybenzamido)acryloyl)hydrazinyl)-1-(furan-2-yl)-3-oxoprop-1-en-2-yl)-3,4,5-trimethoxybenzamide]", "values": [{"measurement": "IC50", "setting": "HepG2 cells [1]", "value": "650 ± 30", "unit": "nM"}, {"measurement": "selectivity ratio toward normal liver cell line", "setting": "HL-7702 cells; HL-7702 (printed HL-7022) versus HepG2", "value": 14.8}, {"measurement": "IC50", "setting": "HL-7702 cells; Homo sapiens, L02, MTT assay, normal liver cell line HL-7702, mean of three independent replicates ± SE", "value": "9620 ± 230", "unit": "nM"}, {"measurement": "IC50", "setting": "HDAC1", "value": 47, "unit": "nM"}, {"measurement": "IC50", "setting": "HDAC2", "value": 86, "unit": "nM"}, {"measurement": "tubulin polymerization percentage inhibition", "setting": "β-tubulin; ELISA for β-tubulin, compared with untreated control cells", "value": 66.39, "unit": "%"}, {"measurement": "IC50", "setting": "β-tubulin; β-tubulin ELISA", "value": 270, "unit": "nM"}, {"measurement": "cells in G2/M phase", "setting": "HepG2 cells [2]", "value": 39.09, "unit": "%"}, {"measurement": "late apoptotic cell percentage", "setting": "HepG2 cells [3]; untreated control 0.13%", "value": 12.08, "unit": "%"}, {"measurement": "early apoptotic cell percentage", "setting": "HepG2 cells [3]; untreated control 0.52%", "value": 23.41, "unit": "%"}, {"measurement": "total apoptosis percentage", "setting": "HepG2 cells [3]; untreated control 1.59%", "value": 37.51, "unit": "%"}, {"measurement": "melting point", "value": "209 to 211", "unit": "°C"}]}]}
